The subject of one assay is mitochondrial proteome. Put plainly: 2-D gel electrophoresis / 2-D western blot of the mitochondrial proteome. In kind it is cell-based, human. As to the method: Mitochondrial extracts of U251 MG cells precipitated according to the ProteoExtract Protein Precipitation Kit (Calbiochem) were pipetted into the sample cup of each strip holder. For large format 2-D-electrophoresis with silver staining and 2-D-western blots, isoelectric focusing (IEF) was performed as described previously (Schutt et al., 2002) using dry polyacrylamide gel strips (IPG, 24 cm) with an immobilized pH gradient pH 3-10 and the IPGphor1 Isolectric Focusing System (Amersham Pharmacia Biotech). IPG strips were rehydrated in reswelling buffer (7 M urea, 2 M thiourea, 2% (w/v) CHAPS, 65 mM dithiothreitol (DTT), 0.8% Pharmalite) overnight. The IEF protocol started at 500 V for 4 h, followed by an increase from 500 V to 4000 V for 10 h and finally 8000 V for 10 h. Equilibration buffer for IPG strips contained 75 mM Tris-HCl, pH 8.8, 2% SDS, 6 M urea, 29.3% glycerol and 0.002% (w/v) bromophenol blue solution, supplemented with 1.5% DDT for the first 15 min and with 2.5% (w/v) iodoacetamide for the following 15 min. For the second dimension the ETTAN Dalt six electrophoresis system was used. After draining the equilibration solution on filter paper the IPG strips were placed on the SDS gel; the electrical settings were 10 mA/gel, 80 V, 1 W/gel for 1 h, followed by 40 mA/gel, 500 V, 13 W/gel for 5-6 h. […]
On the technique in general: In western blotting, separated proteins are transferred to a membrane and probed.

Another assay concerns U251MG glioma cells. Kind of assay: Subcellular fractionation after iodine-125 labelled rhHMGB1; immunofluorescence colocalization. In kind it is cell-based, human. The following applies: 40 nM for 24 h (FIG. 8B). As for the experimental part:
U251 cells were seeded on 10 cm culture dishes. […], 4 h, 16 h and 24 h, the cells were detached carefully by incubation with cell dissociation buffer (30 min) in order to protect possible surface proteinreceptor-complexes, harvested, and subjected to subcellular fractionation using the ApoAlert Fractionation Kit as described below (the plasma membrane fraction was extracted from the cytoplasmatic fraction by a last centrifugation step of 400.000×g for 15 min at 4° C.). Successful fractionation was confirmed by western blot. Successful coupling of the HMGB1-tyrosine residues with I-125 was shown by the high radioactivity in the protein fraction of sephadex G25 gel filtration (early eluates). Fraction 4 was used for the incubation of cells with I-125-HMGB1. For radioactivity measurements cells were solubilized in 0.5M NaOH and mixed with 10 ml LSC cocktail (Ultima Gold, Perkin Elmer, Waltham Mass.). The radioactivity of each subcellular fraction was measured in a liquid scintillation counter (Packard TriCarb 2900, Meriden, Ill.) by using the Compton effect.
Enrichment of mitochondrial fractions was performed using the ApoAlert Cell Fractionation Kit (Clontech, Mountain View, Calif.) as described previously (Gdynia et al., 2008). […]

“rhHMGB1: recombinant human High Mobility Group B1 protein (Sigma Aldrich)”: the “mitochondrial proteome, 2-D silver staining” value with mitochondrial proteome (80 nM, 24 h (FIG. 11B)) is reported as “massive depletion of the isoelectric-neutral proteins”. Further, the “covalently bound malondialdehyde, 2-D western blot” value in the assay with mitochondrial proteome (alkaline range (FIG. 11C)) was “substantial increase in covalently bound malondialdehyde”. Moreover, the “mitochondrial localization, co-staining with mitochondrial marker (MitoTracker)” value in the assay on U251MG glioma cells was “confirmed”.

The values are drawn from US20110123483A1, “HMGB1 FOR CANCER TREATMENT” (DEUTSCHES KREBSFORSCHUNGSZENTRUM, priority 2009, published 2011).
